Measured values from patent US20040209934A1, “Protein phosphate inhibitors” (priority 2001, published 2004).
Read-outs that look alike come from different tables or passages of the source.

Key:
[1] = system: HL60 (human leukaemia, p53 nul); test: cells; type: cell-based
Text: (§1) The MTT assay can be used assess cytotoxicity.

[2] = system: HT29 (human colon carcinoma, p53 mt); test: cells; type: cell-based
Text: as §1

[3] = system: WiDr (human colon carcinoma, p53 mt); test: cells; type: cell-based
Text: as §1

[4] = system: 143B (143BTK-, human oesteosarcoma); test: cells; settings: 72 h, read-out: Cytotoxicity IC50, 143B Ostesarcoma
Text: (§2) The cell lines chosen for study include both normal (non-cancer) and tumour-derived cell lines that represent both haematopoietic and solid tumor types with varying cell cycle control mechanisms (ie p53 status); CCD-18Co (normal human colon), L1210 (murine leukaemia, p53 mt), HL60 (human leukaemia, p53 nul), A2780 (human ovarian carcinoma, p53 wt), ADDP (cisplatin resistant A2780 cells, p53 mt), HCT116 (human colon carcinoma, p53 wt), SW480 (human colon carcinoma, p53 wt), WiDr (human colon carcinoma, p53 mt), HT29 (human colon carcinoma, p53 mt) and 143BTK-(human oesteosarcoma) cells.
(§3) The MTT assay can be used assess cytotoxicity. This assay determines cell viability by the ability of mitochondrial dehydrogenase to produce formazan crystals from 3-(4,5-dimethylthiazol-2-yl)2,5-diphenyltetrazolium bromide. The viable cell number/well is directly proportional to the production of formazan, which following solubilization, can be measured spectrophotometrically (540 nm). […] This technique is also used by the NCI(National Cancer Institute, USA) to screen for new anticancer agents. The MTT assay may be performed 72 h after exposure of the cells to varying doses of the phosphatase inhibitors. Since these agents are likely to interfere with the cell cycle it is important to test the cytotoxicity for at least two-three cell divisions.

[5] = system: A2780 (human ovarian carcinoma, p53 wt); test: cells; settings: A2780, 72 h, read-out: Cytotoxicity IC50, A2780 Ovarian
Text: as §2, §3

PP1 [6] = molecular target: T1, PP1 (Homo sapiens, UniProt P62136); test: Protein phosphatase assay with [32P]-glycogen phosphorylase a as substrate, PP1; type: biochemical; design: made in house; settings: Table 2 cantharimides; average of three experiments in triplicate; read-out: PP1 Inhibition IC50
Protocol: (§4) Protein phosphatase assays were carried out essentially as described (Collins, E.; Sim, A. T. R.; Methods in Molecular Biology 1998, 93, 79-102) using [^32P]-glycogen phosphorylase a as substrate and recombinant PP1 (Bernt, N. Methods in Molecular Biology, 1998, 93, 67-78) or partially purified (chicken skeletal muscle) PP2A catalytic subunits (Mackintosh, C. In Protein Phosphorylation: A Practical Approach, Ed D G Hardie, IRL, 1993). Briefly, enzyme activity was measured at 30 ° C. in a buffer (final volume of […]) containing 50 mM Tris-HCl (pH 7.5), 1 mM EGTA, 0.1 mM EDTA, 5 mM Caffeine, 0.1% mercaptoethanol, 0.3 mg/mL BSA. The concentration of PP1 or PP2A used was such that the reaction was limited to 15% dephosphorylation to ensure linearity. The reaction was started with the addition of […] [^32P]-glycogen phosphorylase a and terminated after 20 minutes by the addition of […] ice-cold 70% TCA. After 10 minutes on ice the sample was centrifuged and a […] aliquot of the supematant was removed for scintillation counting of the [^32p] released during the reaction.

PP1 [7] = molecular target: T1, PP1; settings: read-out: PP1 protein phosphatase inhibition (IC50); cited from earlier work
PP2A = PP2A (Homo sapiens, UniProt P67775); settings: naturally occurring toxins, background Table 1; read-out: PP2A protein phosphatase inhibition (IC50); cited from earlier work
HCT116 cells = test: Cell cycle analysis (propidium iodide, flow cytometry); type: cell-based, human; settings: Cantharidin 25 μM, 6 h
Text: The distribution of cells into the various phases of the cell cycle can be analysed by measuring the DNA content of the cells, via propidium iodide staining and subsequent flow cytometric analysis. Thus senescent cells (G0) and cells in the first gap (G1) of the cell cycle will have approximately half of the DNA content of cells about to under go mitosis (G2+M), while those cells synthesising DNA (S-phase) will have an intermediary DNA content. Using this technology, the effect of these new drugs on cells in the various phases of the cycle can be determined.

[8] = system: ten difference cancer cell lines of ovarian, bone, colon and baematopoietic origin; test: cells; settings: read-out: Cytotoxicity IC50 values, range over ten cancer cell lines
[9] = molecular target: partially purified (chicken skeletal muscle) PP2A catalytic subunits (Gallus gallus, UniProt P48463); type: biochemical
Protocol: as §4

T1 sequence (P62136 whole entry): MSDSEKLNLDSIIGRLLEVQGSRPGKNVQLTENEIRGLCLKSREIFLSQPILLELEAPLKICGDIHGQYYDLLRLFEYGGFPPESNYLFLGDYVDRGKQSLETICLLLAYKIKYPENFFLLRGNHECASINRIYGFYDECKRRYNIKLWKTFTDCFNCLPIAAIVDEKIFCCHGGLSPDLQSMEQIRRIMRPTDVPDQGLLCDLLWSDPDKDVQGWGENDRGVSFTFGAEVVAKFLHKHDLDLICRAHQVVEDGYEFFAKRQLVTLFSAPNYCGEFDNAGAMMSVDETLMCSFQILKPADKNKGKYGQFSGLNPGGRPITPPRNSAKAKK
Sequence of partially purified (chicken skeletal muscle) PP2A catalytic subunits (P48463 whole entry): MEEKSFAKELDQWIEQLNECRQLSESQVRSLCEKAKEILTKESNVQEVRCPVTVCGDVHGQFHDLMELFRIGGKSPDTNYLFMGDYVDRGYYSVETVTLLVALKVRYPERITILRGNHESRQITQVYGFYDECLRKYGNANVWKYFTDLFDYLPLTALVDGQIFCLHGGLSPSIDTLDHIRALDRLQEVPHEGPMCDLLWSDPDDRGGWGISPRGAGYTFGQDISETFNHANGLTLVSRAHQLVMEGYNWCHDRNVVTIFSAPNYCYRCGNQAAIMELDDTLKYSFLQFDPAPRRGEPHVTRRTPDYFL
Sequence of PP2A (P67775 whole entry): as the sequence (P48463 whole entry) above, with E2D, S5V, A7T, R21K, R29K, P108R counted along it

CCCOC(=O)C1C(C(=O)O)[C@@H]2CC[C@H]1O2 (stereo partly drawn) gave an IC50 ([1]; HL-60, 72 h, read-out: Cytotoxicity IC50, HL60 Leukaemia) of 270 ± 15 µM, an IC50 ([2]; HT-29, 72 h, read-out: Cytotoxicity IC50, HT29 Colon) of 15 ± 5 µM and an IC50 ([3]; 72 h, read-out: Cytotoxicity IC50, WiDr Colon) of 33 ± 6 µM. It also gave an IC50 [4] of 450 ± 50 µM and an IC50 [5] of 110 ± 10 µM.
For O=C1OC(O)[C@@H]2[C@H]1[C@H]1CC[C@@H]2O1 (stereo partly drawn), the IC50 ([1]; HL-60, 72 h exposure, background Table 2, read-out: Cytotoxicity IC50, HL60 Leukaemia) was 393 ± 103 µM, the IC50 ([2]; HT-29, 72 h exposure, background Table 2, read-out: Cytotoxicity IC50, HT29 Colon) was 14 ± 0.3 µM and the IC50 ([3]; 72 h exposure, background Table 2, read-out: Cytotoxicity IC50, WiDr Colon) was 15 ± 3 µM. For the same compound, the IC50 [4] was 454 ± 50 µM and the IC50 [5] was 333 ± 55 µM.
In the case of O=C(O)C(Cc1ccc(O)cc1)N1C(=O)C2C3CCC(O3)C2C1=O (single isomer, unassigned) [Compound 16], the IC50 (PP1 [6]) is reported as 101 ± 34 µM.
In the case of O=C(O)C(Cc1ccc(O)cc1)N1C(=O)C2C3CCC(O3)C2C1=O (single isomer, unassigned) [Compound 17], the IC50 (PP1 [6]) is reported as 570 ± 330 µM.
In the case of COC[C@@H]([C@H](O)[C@H](O)C(=O)NCC[C@H](C)c1nc(/C=C/C[C@@H]2O[C@]3(C[C@@H](O)[C@@H]2C)O[C@H]([C@H](C[C@H](O)[C@H](C)[C@H](O)[C@H](C)/C=C(C)/C(C)=C/C=C/C(C)=C\C#N)OC)[C@H](OP(=O)(O)O)C3(C)C)co1)N(C)C [Calyculin A], the IC50 (PP1 [7]) is given as 2 nM and the IC50 (PP2A) is given as 0.5 nM.
For C[C@@]12C(=O)OC(=O)[C@]1(C)[C@H]1CC[C@@H]2O1 [Compound 1, cantharidin], the “Cell cycle distribution, S-phase” value (HCT116 cells) was “significant increased S-phase population” and the IC50 [8] was 6 to 18 µM.
Work on O=C1OC(=O)[C@H]2[C@@H]1[C@@H]1CC[C@H]2O1 [Compound 3, norcantharidin, reference compound] yielded an IC50 (PP1 [6]) of 5.31 ± 0.36 µM.
In the case of C[C@H](C(=O)O)N1C(=O)C2C3CCC(O3)C2C1=O (stereo partly drawn) [Compound 4], the “PP2A inhibition, in words” value [9] is reported as “marginal activity” and the IC50 (PP1 [6]) is reported as > 1000 µM.
With C[C@@H](C(=O)O)N1C(=O)C2C3CCC(O3)C2C1=O (stereo partly drawn) [Compound 5] the IC50 (PP1 [6]) was > 1000 µM.
For O=C(O)[C@@H](Cc1ccccc1)N1C(=O)C2C3CCC(O3)C2C1=O (stereo partly drawn) [Compound 6], the IC50 (PP1 [6]) was > 1000 µM.
With O=C(O)[C@H](Cc1ccccc1)N1C(=O)C2C3CCC(O3)C2C1=O (stereo partly drawn) [Compound 7] the IC50 (PP1 [6]) was > 1000 µM.
In the case of CC(C)C[C@H](C(=O)O)N1C(=O)C2C3CCC(O3)C2C1=O (stereo partly drawn) [Compound 8], the IC50 (PP1 [6]) is reported as > 1000 µM.
With CC(C)C[C@@H](C(=O)O)N1C(=O)C2C3CCC(O3)C2C1=O (stereo partly drawn) [Compound 9] the IC50 (PP1 [6]) was > 1000 µM.
